Measurements as given in patent US6677466B1, “Method for stabilizing hydrogen peroxide” (DSM Fine Chemicals Austria NFG GmbH & Co KG, priority 1999, dated 2004).

Assay: O2 evolution from RuO2.xH2O-catalysed decomposition of H2O2 with stabilizer
Assay type: physicochemical
Procedure: A 50% strength aqueous solution of H2O2 (304 mg; 4.46 mmol) was added to 454 mg (4.46 mmol) of methyl pyruvate and to 535 mg (4.46 mmol) of glyoxylic methyl ester methyl hemiacetal, respectively. In the case of methyl pyruvate, a marked evolution of heat was discovered during the addition. After one hour, the H2O2/α-keto ester mixture was mixed with 1 ml of solvent and added to a suspension of 2.5 mg of RuO2.xH2O catalyst (Aldrich) in 4 ml of solvent. The suspension was introduced into a 50 ml flask which was maintained at room temperature in a water bath.
As a comparison, a suspension of 2.5 mg of RuO2.xH2O catalyst (Aldrich) in 4 ml of solvent was combined with a 50% strength aqueous solution of H2O2 (304 mg; 4.46 mmol) and 1 ml of solvent without stabilizer.
The amount of oxygen which […] the decomposition of the hydrogen peroxide was determined as a function of time using a Brooks meter, which permitted measurement of the gas flow and of the total amount of evolved gas.
The amount of oxygen is defined here as % of the maximum amount to be calculated on the basis of stoichiometry.

COC(=O)C(O)OC (stereo not drawn) [GMHA, glyoxylic methyl ester methyl hemiacetal]
O2 evolution V(O2) (Vmax(O2)*100%) (solv. acetic acid, t 1 min): 0% | O2 evolution V(O2) (Vmax(O2)*100%) (solv. acetic acid, t 2 min): 1% | O2 evolution V(O2) (Vmax(O2)*100%) (solv. acetic acid, t 3 min): 2% | O2 evolution V(O2) (Vmax(O2)*100%) (solv. acetic acid, t 4 min): 2% | O2 evolution V(O2) (Vmax(O2)*100%) (solv. acetic acid, t 5 min): 2% | O2 evolution V(O2) (Vmax(O2)*100%) (solv. acetic acid, t 10 min): 2% | O2 evolution V(O2) (Vmax(O2)*100%) (solv. acetic acid, t 15 min): 2% | O2 evolution V(O2) (Vmax(O2)*100%) (solv. acetic acid, t 20 min): 2% | O2 evolution V(O2) (Vmax(O2)*100%) (solv. acetic acid, t 25 min): 2% | O2 evolution V(O2) (Vmax(O2)*100%) (solv. acetic acid, t 30 min): 2% | O2 evolution V(O2) (Vmax(O2)*100%) (solv. acetic acid, t 35 min): 2% | O2 evolution V(O2) (Vmax(O2)*100%) (solv. acetic acid, t 40 min): 2% | O2 evolution V(O2) (Vmax(O2)*100%) (solv. acetone, t 1 min): 0% | O2 evolution V(O2) (Vmax(O2)*100%) (solv. acetone, t 2 min): 0% | O2 evolution V(O2) (Vmax(O2)*100%) (solv. acetone, t 3 min): 0% | O2 evolution V(O2) (Vmax(O2)*100%) (solv. acetone, t 4 min): 0% | O2 evolution V(O2) (Vmax(O2)*100%) (solv. acetone, t 5 min): 0% | O2 evolution V(O2) (Vmax(O2)*100%) (solv. acetone, t 10 min): 0% | O2 evolution V(O2) (Vmax(O2)*100%) (solv. acetone, t 15 min): 0% | O2 evolution V(O2) (Vmax(O2)*100%) (solv. acetone, t 20 min): 0% | O2 evolution V(O2) (Vmax(O2)*100%) (solv. acetone, t 25 min): 0% | O2 evolution V(O2) (Vmax(O2)*100%) (solv. acetone, t 30 min): 0% | O2 evolution V(O2) (Vmax(O2)*100%) (solv. acetone, t 35 min): 0% | O2 evolution V(O2) (Vmax(O2)*100%) (solv. acetone, t 40 min): 0% | O2 evolution V(O2) (Vmax(O2)*100%) (solv. acetonitrile, t 1 min): 3% | O2 evolution V(O2) (Vmax(O2)*100%) (solv. acetonitrile, t 2 min): 3% | O2 evolution V(O2) (Vmax(O2)*100%) (solv. acetonitrile, t 3 min): 3% | O2 evolution V(O2) (Vmax(O2)*100%) (solv. acetonitrile, t 4 min): 3% | O2 evolution V(O2) (Vmax(O2)*100%) (solv. acetonitrile, t 5 min): 3% | O2 evolution V(O2) (Vmax(O2)*100%) (solv. acetonitrile, t 10 min): 3% | O2 evolution V(O2) (Vmax(O2)*100%) (solv. acetonitrile, t 15 min): 3% | O2 evolution V(O2) (Vmax(O2)*100%) (solv. acetonitrile, t 20 min): 3% | O2 evolution V(O2) (Vmax(O2)*100%) (solv. acetonitrile, t 25 min): 3% | O2 evolution V(O2) (Vmax(O2)*100%) (solv. acetonitrile, t 30 min): 3% | O2 evolution V(O2) (Vmax(O2)*100%) (solv. acetonitrile, t 35 min): 3% | O2 evolution V(O2) (Vmax(O2)*100%) (solv. acetonitrile, t 40 min): 3% | O2 evolution V(O2) (Vmax(O2)*100%) (solv. ethyl acetate, t 1 min): 3% | O2 evolution V(O2) (Vmax(O2)*100%) (solv. ethyl acetate, t 2 min): 5% | O2 evolution V(O2) (Vmax(O2)*100%) (solv. ethyl acetate, t 3 min): 6% | O2 evolution V(O2) (Vmax(O2)*100%) (solv. ethyl acetate, t 4 min): 7% | O2 evolution V(O2) (Vmax(O2)*100%) (solv. ethyl acetate, t 5 min): 8% | O2 evolution V(O2) (Vmax(O2)*100%) (solv. ethyl acetate, t 10 min): 9% | O2 evolution V(O2) (Vmax(O2)*100%) (solv. ethyl acetate, t 15 min): 9% | O2 evolution V(O2) (Vmax(O2)*100%) (solv. ethyl acetate, t 20 min): 9% | O2 evolution V(O2) (Vmax(O2)*100%) (solv. ethyl acetate, t 25 min): 9% | O2 evolution V(O2) (Vmax(O2)*100%) (solv. ethyl acetate, t 30 min): 9% | O2 evolution V(O2) (Vmax(O2)*100%) (solv. ethyl acetate, t 35 min): 9% | O2 evolution V(O2) (Vmax(O2)*100%) (solv. ethyl acetate, t 40 min): 9% | O2 evolution V(O2) (Vmax(O2)*100%) (solv. methanol, t 1 min): 0% | O2 evolution V(O2) (Vmax(O2)*100%) (solv. methanol, t 2 min): 0% | O2 evolution V(O2) (Vmax(O2)*100%) (solv. methanol, t 3 min): 0% | O2 evolution V(O2) (Vmax(O2)*100%) (solv. methanol, t 4 min): 0% | O2 evolution V(O2) (Vmax(O2)*100%) (solv. methanol, t 5 min): 0% | O2 evolution V(O2) (Vmax(O2)*100%) (solv. methanol, t 10 min): 0% | O2 evolution V(O2) (Vmax(O2)*100%) (solv. methanol, t 15 min): 0% | O2 evolution V(O2) (Vmax(O2)*100%) (solv. methanol, t 20 min): 0% | O2 evolution V(O2) (Vmax(O2)*100%) (solv. methanol, t 25 min): 0% | O2 evolution V(O2) (Vmax(O2)*100%) (solv. methanol, t 30 min): 0% | O2 evolution V(O2) (Vmax(O2)*100%) (solv. methanol, t 35 min): 0% | O2 evolution V(O2) (Vmax(O2)*100%) (solv. methanol, t 40 min): 0% | O2 evolution V(O2) (Vmax(O2)*100%) (solv. t-butanol, t 1 min): 0% | O2 evolution V(O2) (Vmax(O2)*100%) (solv. t-butanol, t 2 min): 0% | O2 evolution V(O2) (Vmax(O2)*100%) (solv. t-butanol, t 3 min): 0% | O2 evolution V(O2) (Vmax(O2)*100%) (solv. t-butanol, t 4 min): 0% | O2 evolution V(O2) (Vmax(O2)*100%) (solv. t-butanol, t 5 min): 0% | O2 evolution V(O2) (Vmax(O2)*100%) (solv. t-butanol, t 10 min): 0% | O2 evolution V(O2) (Vmax(O2)*100%) (solv. t-butanol, t 15 min): 0% | O2 evolution V(O2) (Vmax(O2)*100%) (solv. t-butanol, t 20 min): 0% | O2 evolution V(O2) (Vmax(O2)*100%) (solv. t-butanol, t 25 min): 0% | O2 evolution V(O2) (Vmax(O2)*100%) (solv. t-butanol, t 30 min): 0% | O2 evolution V(O2) (Vmax(O2)*100%) (solv. t-butanol, t 35 min): 0% | O2 evolution V(O2) (Vmax(O2)*100%) (solv. t-butanol, t 40 min): 0% | O2 evolution V(O2) (Vmax(O2)*100%) (solv. water, t 1 min): 3% | O2 evolution V(O2) (Vmax(O2)*100%) (solv. water, t 2 min): 4% | O2 evolution V(O2) (Vmax(O2)*100%) (solv. water, t 3 min): 5% | O2 evolution V(O2) (Vmax(O2)*100%) (solv. water, t 4 min): 6% | O2 evolution V(O2) (Vmax(O2)*100%) (solv. water, t 5 min): 10% | O2 evolution V(O2) (Vmax(O2)*100%) (solv. water, t 10 min): 13% | O2 evolution V(O2) (Vmax(O2)*100%) (solv. water, t 15 min): 13% | O2 evolution V(O2) (Vmax(O2)*100%) (solv. water, t 20 min): 13% | O2 evolution V(O2) (Vmax(O2)*100%) (solv. water, t 25 min): 13% | O2 evolution V(O2) (Vmax(O2)*100%) (solv. water, t 30 min): 13% | O2 evolution V(O2) (Vmax(O2)*100%) (solv. water, t 35 min): 13% | O2 evolution V(O2) (Vmax(O2)*100%) (solv. water, t 40 min): 13%
